Results on 18 compounds are retold here after patent publication US12534451B2, “Small molecule modulators of PanK” (St. Jude Children's Research Hospital, priority 2019, dated 2026).

SMILES strings stand for the structures.

Sequence of human PANK3 (Q9H999 whole entry): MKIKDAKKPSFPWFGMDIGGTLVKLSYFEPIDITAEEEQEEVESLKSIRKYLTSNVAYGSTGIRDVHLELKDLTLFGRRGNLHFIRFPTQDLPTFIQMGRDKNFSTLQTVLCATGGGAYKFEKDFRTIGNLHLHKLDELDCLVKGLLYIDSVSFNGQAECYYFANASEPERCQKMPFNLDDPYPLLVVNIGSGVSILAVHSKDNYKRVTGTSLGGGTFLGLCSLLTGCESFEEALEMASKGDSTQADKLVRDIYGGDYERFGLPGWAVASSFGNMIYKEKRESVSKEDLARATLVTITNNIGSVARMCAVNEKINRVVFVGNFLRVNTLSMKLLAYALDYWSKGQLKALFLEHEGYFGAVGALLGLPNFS

One experiment has as its target human PANK3 (Homo sapiens (Human), UniProt Q9H999). The experiment is described as follows: PANK activity assay (radiochemical, D-[1-14C]pantothenate). The experiment is classed as biochemical. The following applies: 5 nM human PANK3, 2.5 mM ATP, 45 μM pantothenate, 10 min at 37° C.; average ± data range. The protocol:
The PanK activity and Surface Plasmon Resonance assays were conducted as explained in the literature.
If the IC^50 was determined to be in the nM range then the assay was repeated in the presence of 0-1 μM or 0-0.1 μM compound to more precisely determine the IC^50. All the experiments were repeated twice in duplicate and the data were an average ±data range.
The experiments mimicking the mixture of ligands present in vivo were performed under different conditions. […] The IC^50 values for the structure-activity study were calculated by fitting the inhibition data to a one-site model of the Michaelis-Menten equation. […] Thus, the data were fit to Morrison's quadratic equation (GraphPad software) that accounts for the impact of enzyme inhibitor binding on the free concentration of inhibitor.
The term IC50 denotes the point on the concentration scale where inhibition reaches its midpoint. The low end stands for greater potency, the high end for weaker potency. For `CN(C)c1ccc(CC(=O)N2CCN(c3nc4c(F)cc(F)cc4s3)CC2)cc1` [Lee-4296], the IC50 was determined as 25 ± 1.6 nM.
As to `CS(=O)(=O)Nc1ccc(CC(=O)N2CCN(c3ccc(Cl)nn3)CC2)cc1` [PZ-4140, N-(4-(2-(4-(6-chloropyridazin-3-yl)piperazin-1-yl)-2-oxoethyl)phenyl)methanesulfonamide], the IC50 was 3.8 ± 0.1 nM.
The compound `CCS(=O)(=O)Nc1ccc(CC(=O)N2CCN(c3ccc(C#N)nn3)CC2)cc1` [PZ-4215] returned a half-maximal inhibitory concentration (IC50) of 4 ± 0.3 nM.
`N#Cc1cnc(N2CCN(C(=O)Cc3ccc(C4CC4)cc3)CC2)cn1` [PZ-4284] showed an IC50 of 27 ± 4 nM.
Take `O=C(Cc1ccc(C2CC2)cc1)N1CCN(c2nc3ccccc3s2)CC1` [PZ-4285]: half-maximal inhibition (IC50) required 26 ± 3 nM.
Regarding `O=C(Cc1ccc(C2CC2)cc1)N1CCN(c2nc3c(F)cc(F)cc3s2)CC1` [PZ-4291], half-maximal inhibition (IC50) required 2.1 ± 0.1 nM.
Compound `CS(=O)(=O)Nc1ccc(CC(=O)N2CCN(c3nc4ccccc4s3)CC2)cc1` [PZ-4294] gave a half-inhibitory concentration (IC50) of 13 ± 1.3 nM.
`O=C(Cc1ccc(C2CC2)cc1)N1CCN(c2nc3ncccc3s2)CC1` [PZ-4298] displayed a half-maximal inhibitory concentration (IC50) of 1 ± 0.1 nM.
`O=C(Cc1ccc(C2CC2)cc1)N1CCN(c2nc3c(F)cccc3s2)CC1` [PZ-4299]: half-maximal inhibition (IC50) was put at 7.2 ± 1.3 nM.
Still for that read-out and setting: with `O=C(Cc1ccc(C2CC2)cc1)N1CCN(c2nc3ccc(F)cc3s2)CC1` [PZ-4300] the figure was 3.9 ± 0.3 nM.
For the compound `O=C(Cc1ccc(C2CC2)cc1)N1CCN(c2nc3cccnc3o2)CC1` [PZ-4301], inhibition was half-maximal at 52.9 ± 6.4 nM (IC50).
Compound `O=C(Cc1ccc(C2CC2)cc1)N1CCN(c2nc3ccc(F)cc3o2)CC1` [PZ-4304] registered an IC50 of 14.3 ± 0.6 nM.
Turning to `O=C(Cc1ccc(C2CC2)cc1)N1CCN(c2nc3cc(F)ccc3s2)CC1` [PZ-4306], 5.4 ± 0.4 nM corresponded to half-maximal inhibition (IC50).
The same measure, in the same setting: with `O=C(Cc1ccc(C2CC2)cc1)N1CCN(c2nc3ncccc3o2)CC1` [PZ-4314] the figure was 2.9 ± 0.1 nM; with `CN(C)c1ccc(CC(=O)N2CCN(c3nc4ncccc4s3)CC2)cc1` [PZ-4316], 5 ± 0.5 nM.
For `CS(=O)(=O)Nc1ccc(CC(=O)N2CCN(c3nc4ncccc4s3)CC2)cc1` [PZ-4320], it took 1.4 ± 0.16 nM to reach half-maximal inhibition (IC50).
In the case of `CS(=O)(=O)Nc1ccc(CC(=O)N2CCN(c3nc4c(F)cccc4s3)CC2)cc1` [PZ-4322], half-maximal inhibition (IC50) required 4.1 ± 0.49 nM.
`CS(=O)(=O)Nc1ccc(CC(=O)N2CCN(c3nc4c(F)cc(F)cc4s3)CC2)cc1` [PZ-4324] yielded an IC50 of 1.3 ± 0.06 nM.

The subject of the next experiment is Human C3A [HepG2/C3A] cells. Put plainly: Cellular total CoA determination in C3A cells. The format is cell-based. The following applies: 24 hrs of treatment. The protocol:
Human C3A [HepG2/C3A, derivative of HepG2] cells (ATCC #CRL-10741) were purchased from ATCC® and maintained in Eagle's minimum Essential medium (ATCC) supplemented with 2 mM glutamine, 10% fetal bovine serum (FCS, Altanta Biologicals), 50 U/ml penicillin and […] streptomycin. The C3A cell line was confirmed to be mycoplasma-free. Test compounds or vehicle control (DMSO) was added and after 24 hrs of treatment the cells were washed with PBS and harvested and subjected to total CoA determination.
Cultured cells were resuspended in 2 ml cold water to which 500 μl of 0.25M KOH was added, derivatized with monobromobimane (mBBr, Life technologies) and quantified by HPLC. 30 mg of frozen tissue is homogenized in 2 ml of 1 mM KOH and then derivatized with mBBr. The mBBr derivatized samples were fractionated by reverse-phase HPLC using a Gemini C18 3 μm column (150×4.60 mm) from Phenomenex. The chromatography system was a Waters e2695 separation module with a UV/Vis and fluorescence detector and controlled by Empower 3 software. Solvent A was 50 mM potassium phosphate pH 4.6, and solvent B was 100% acetonitrile. Twenty microliters of sample was injected onto the column, and the flow rate was 0.5 ml/min. The HPLC program was the following: starting solvent mixture of 90% A/10% B, 0-2 min isocratic with 10% B, 2-6 min linear gradient from 10% B to 15% B, 6-18 min concave gradient from 15% B to 40% B, 18-23 min isocratic with 40% B, 23-25 min linear gradient from 40 to 10%, and 25-30 min isocratic with 10% B. The UV/vis detector was set at 393 nm, and the fluorescence detector was set with excitation at 393 nm and emission at 470 nm. The elution position of the mBBr-CoA, was determined by comparison with mBBr-CoA prepared from commercial CoA (Avanti Polar Lipids). The areas under the mBBr-derivatized CoA was integrated and compared to known concentrations of the mBBr-CoA standard.
Take `CN(C)c1ccc(CC(=O)N2CCN(c3nc4c(F)cc(F)cc4s3)CC2)cc1` [Lee-4296]: the “C3A CoA% elevation” value worked out at 198.6%.
For the compound `CS(=O)(=O)Nc1ccc(CC(=O)N2CCN(c3ccc(Cl)nn3)CC2)cc1` [PZ-4140, N-(4-(2-(4-(6-chloropyridazin-3-yl)piperazin-1-yl)-2-oxoethyl)phenyl)methanesulfonamide], the “C3A CoA% elevation” value worked out at 64.4%.
Consider `CCS(=O)(=O)Nc1ccc(CC(=O)N2CCN(c3ccc(C#N)nn3)CC2)cc1` [PZ-4215], for which the “C3A CoA% elevation” value came out at 160.9%.
In the case of `N#Cc1cnc(N2CCN(C(=O)Cc3ccc(C4CC4)cc3)CC2)cn1` [PZ-4284], the “C3A CoA% elevation” value turned out to be 448.2%.
Still for that read-out and setting: with `O=C(Cc1ccc(C2CC2)cc1)N1CCN(c2nc3ccccc3s2)CC1` [PZ-4285] the figure was 223.7%.
Take `O=C(Cc1ccc(C2CC2)cc1)N1CCN(c2nc3c(F)cc(F)cc3s2)CC1` [PZ-4291]: the “C3A CoA% elevation” value came out at 238.4%.
With `CS(=O)(=O)Nc1ccc(CC(=O)N2CCN(c3nc4ccccc4s3)CC2)cc1` [PZ-4294], the “C3A CoA% elevation” value was found to be 102.23%.
As for `O=C(Cc1ccc(C2CC2)cc1)N1CCN(c2nc3ncccc3s2)CC1` [PZ-4298], the “C3A CoA% elevation” value is listed as 60.1%.
Consider `O=C(Cc1ccc(C2CC2)cc1)N1CCN(c2nc3c(F)cccc3s2)CC1` [PZ-4299], for which the “C3A CoA% elevation” value is given as 228.4%.
On to `O=C(Cc1ccc(C2CC2)cc1)N1CCN(c2nc3ccc(F)cc3s2)CC1` [PZ-4300], for which the “C3A CoA% elevation” value is reported as 242.5%.
With `O=C(Cc1ccc(C2CC2)cc1)N1CCN(c2nc3cccnc3o2)CC1` [PZ-4301], the “C3A CoA% elevation” value was 268.3%.
For the compound `O=C(Cc1ccc(C2CC2)cc1)N1CCN(c2nc3ccc(F)cc3o2)CC1` [PZ-4304], the “C3A CoA% elevation” value is recorded as 167%.
Turning to `O=C(Cc1ccc(C2CC2)cc1)N1CCN(c2nc3cc(F)ccc3s2)CC1` [PZ-4306], the “C3A CoA% elevation” value is 238.6%.
Take `O=C(Cc1ccc(C2CC2)cc1)N1CCN(c2nc3ncccc3o2)CC1` [PZ-4314]: the “C3A CoA% elevation” value worked out at 275%.
The same measure, in the same setting: next, `CN(C)c1ccc(CC(=O)N2CCN(c3nc4ncccc4s3)CC2)cc1` [PZ-4316]: 183.4%.
`CS(=O)(=O)Nc1ccc(CC(=O)N2CCN(c3nc4ncccc4s3)CC2)cc1` [PZ-4320]: the “C3A CoA% elevation” value came out at 58%.
As for `CS(=O)(=O)Nc1ccc(CC(=O)N2CCN(c3nc4c(F)cccc4s3)CC2)cc1` [PZ-4322], the “C3A CoA% elevation” value came out at 171.6%.
Regarding `CS(=O)(=O)Nc1ccc(CC(=O)N2CCN(c3nc4c(F)cc(F)cc4s3)CC2)cc1` [PZ-4324], the “C3A CoA% elevation” value was found to be 104.3%.
